# Reference: the NIST ThermoML archive (doi:10.1016/j.jct.2017.11.004)
# “And” between values parts separate entries of the source, which are not always exact repeats. Equal values may be shown once. ± gives the expanded uncertainty stated by the source.
# Conditions: Crystal, Rate of evaporation
smiles,measurement,setting,value
[Ar] [argon],vapor or sublimation pressure,27.51 K,1.95e-09 ± 3.3e-10 kPa and 1.73e-09 ± 4.6e-10 kPa
same,vapor or sublimation pressure,28.01 K,3.29e-09 ± 4.9e-10 kPa and 3.3e-09 ± 5.6e-10 kPa
same,vapor or sublimation pressure,28.5 K,5.92e-09 ± 1.3e-09 kPa
same,vapor or sublimation pressure,28.51 K,5.83e-09 ± 6.1e-10 kPa
same,vapor or sublimation pressure,29 K,1.028e-08 ± 1.2e-09 kPa
same,vapor or sublimation pressure,29.01 K,1.035e-08 ± 1.1e-09 kPa
same,vapor or sublimation pressure,29.5 K,1.808e-08 ± 1.7e-09 kPa
same,vapor or sublimation pressure,29.51 K,1.812e-08 ± 1.6e-09 kPa
same,vapor or sublimation pressure,30 K,3.105e-08 ± 4.4e-09 kPa and 3.116e-08 ± 3.5e-09 kPa
same,vapor or sublimation pressure,30.49 K,5.189e-08 ± 5.4e-09 kPa
same,vapor or sublimation pressure,30.5 K,5.157e-08 ± 6.5e-09 kPa
same,vapor or sublimation pressure,30.99 K,8.27e-08 ± 1.2e-08 kPa
same,vapor or sublimation pressure,31 K,8.469e-08 ± 2.1e-08 kPa
O=C=O [carbon dioxide],vapor or sublimation pressure,80.03 K,7.21e-09 ± 8.9e-10 kPa
same,vapor or sublimation pressure,80.53 K,8.98e-09 ± 8.5e-10 kPa and 8.61e-09 ± 1e-09 kPa
same,vapor or sublimation pressure,81.03 K,1.11e-08 ± 1.3e-09 kPa and 1.252e-08 ± 1.1e-09 kPa
same,vapor or sublimation pressure,81.52 K,1.416e-08 ± 1.6e-09 kPa and 1.56e-08 ± 1.4e-09 kPa
same,vapor or sublimation pressure,82.02 K,1.819e-08 ± 2.1e-09 kPa and 1.911e-08 ± 1.6e-09 kPa
same,vapor or sublimation pressure,82.52 K,2.353e-08 ± 2.7e-09 kPa and 2.519e-08 ± 2.1e-09 kPa
same,vapor or sublimation pressure,83.02 K,2.981e-08 ± 3.3e-09 kPa and 3.328e-08 ± 2.8e-09 kPa
same,vapor or sublimation pressure,83.53 K,3.967e-08 ± 4.4e-09 kPa and 4.446e-08 ± 3.7e-09 kPa
same,vapor or sublimation pressure,84.03 K,5.272e-08 ± 1e-08 kPa and 5.947e-08 ± 7.3e-09 kPa
same,vapor or sublimation pressure,84.53 K,6.988e-08 ± 7.7e-09 kPa and 6.758e-08 ± 5.5e-09 kPa
[Kr] [krypton],vapor or sublimation pressure,38.5 K,1.68e-09 ± 2.9e-10 kPa and 1.86e-09 ± 3e-10 kPa
same,vapor or sublimation pressure,39 K,2.84e-09 ± 3.7e-10 kPa and 2.68e-09 ± 3.6e-10 kPa
same,vapor or sublimation pressure,39.49 K,4.01e-09 ± 4.7e-10 kPa
same,vapor or sublimation pressure,39.5 K,4.34e-09 ± 4.9e-10 kPa
same,vapor or sublimation pressure,39.99 K,6.3e-09 ± 6.4e-10 kPa
same,vapor or sublimation pressure,40 K,6.56e-09 ± 6.6e-10 kPa
same,vapor or sublimation pressure,40.49 K,9.97e-09 ± 9.3e-10 kPa and 9.68e-09 ± 9.1e-10 kPa
same,vapor or sublimation pressure,41 K,1.527e-08 ± 1.4e-09 kPa and 1.475e-08 ± 1.4e-09 kPa
same,vapor or sublimation pressure,41.5 K,2.312e-08 ± 2e-09 kPa and 2.262e-08 ± 2e-09 kPa
same,vapor or sublimation pressure,42 K,3.529e-08 ± 3.2e-09 kPa and 3.422e-08 ± 2.8e-09 kPa
same,vapor or sublimation pressure,42.5 K,5.406e-08 ± 4.3e-09 kPa
same,vapor or sublimation pressure,42.51 K,5.092e-08 ± 4.1e-09 kPa
[Ne] [neon],vapor or sublimation pressure,8.004 K,2.98e-08 ± 9.8e-09 kPa
same,vapor or sublimation pressure,8.251 K,6.87e-08 ± 1.8e-08 kPa
same,vapor or sublimation pressure,8.502 K,1.633e-07 ± 4.3e-08 kPa
same,vapor or sublimation pressure,8.749 K,3.617e-07 ± 1.3e-07 kPa
same,vapor or sublimation pressure,8.792 K,4.482e-07 ± 1.1e-07 kPa
same,vapor or sublimation pressure,8.996 K,9.17e-07 ± 7.4e-08 kPa
same,vapor or sublimation pressure,9.046 K,9.212e-07 ± 7.3e-08 kPa
same,vapor or sublimation pressure,9.251 K,1.832e-06 ± 3.5e-07 kPa
same,vapor or sublimation pressure,9.468 K,2.529e-06 ± 1.4e-06 kPa
same,vapor or sublimation pressure,9.518 K,3.574e-06 ± 1.3e-06 kPa
same,vapor or sublimation pressure,9.727 K,5.097e-06 ± 1.3e-06 kPa
same,vapor or sublimation pressure,9.776 K,6.564e-06 ± 2.2e-06 kPa
N#N [nitrogen],vapor or sublimation pressure,23.5 K,1.9e-10 ± 1.9e-10 kPa
same,vapor or sublimation pressure,23.51 K,1.5e-10 ± 1.8e-10 kPa
same,vapor or sublimation pressure,24 K,4e-10 ± 2.9e-10 kPa
same,vapor or sublimation pressure,24.5 K,8.2e-10 ± 5.3e-10 kPa
same,vapor or sublimation pressure,25 K,1.66e-09 ± 1e-09 kPa
same,vapor or sublimation pressure,25.49 K,3.24e-09 ± 2e-09 kPa
same,vapor or sublimation pressure,25.99 K,6.63e-09 ± 4e-09 kPa
same,vapor or sublimation pressure,26.48 K,1.287e-08 ± 7.8e-09 kPa
same,vapor or sublimation pressure,26.99 K,2.45e-08 ± 1.5e-08 kPa
same,vapor or sublimation pressure,27.48 K,3.89e-08 ± 2.4e-08 kPa
O=O [oxygen],vapor or sublimation pressure,28.99 K,1.81e-09 ± 7.7e-10 kPa
same,vapor or sublimation pressure,29.48 K,5.02e-09 ± 2.1e-09 kPa and 3.06e-09 ± 1.3e-09 kPa
same,vapor or sublimation pressure,29.98 K,5.64e-09 ± 2.3e-09 kPa
same,vapor or sublimation pressure,29.99 K,8.75e-09 ± 3.6e-09 kPa
same,vapor or sublimation pressure,30.47 K,1.01e-08 ± 4.1e-09 kPa and 1.531e-08 ± 6.2e-09 kPa
same,vapor or sublimation pressure,30.98 K,1.855e-08 ± 7.6e-09 kPa and 2.698e-08 ± 1.1e-08 kPa
same,vapor or sublimation pressure,31.48 K,3.339e-08 ± 1.4e-08 kPa and 4.84e-08 ± 2e-08 kPa
same,vapor or sublimation pressure,31.77 K,8.494e-08 ± 3.5e-08 kPa
same,vapor or sublimation pressure,31.98 K,5.894e-08 ± 2.4e-08 kPa
same,vapor or sublimation pressure,32.48 K,1.034e-07 ± 4.2e-08 kPa and 1.469e-07 ± 6e-08 kPa
same,vapor or sublimation pressure,32.98 K,1.632e-07 ± 6.6e-08 kPa
O [water],vapor or sublimation pressure,154.97 K,3.289e-08 ± 7.3e-09 kPa and 2.922e-08 ± 6.5e-09 kPa
same,vapor or sublimation pressure,155.96 K,4.124e-08 ± 8.6e-09 kPa
same,vapor or sublimation pressure,156.96 K,5.337e-08 ± 1.3e-08 kPa
same,vapor or sublimation pressure,156.97 K,6.144e-08 ± 1.3e-08 kPa
same,vapor or sublimation pressure,157.96 K,7.108e-08 ± 1.5e-08 kPa
same,vapor or sublimation pressure,158.97 K,9.378e-08 ± 2e-08 kPa
same,vapor or sublimation pressure,159.96 K,1.174e-07 ± 2.5e-08 kPa
same,vapor or sublimation pressure,159.98 K,1.185e-07 ± 2.5e-08 kPa
same,vapor or sublimation pressure,160.47 K,1.414e-07 ± 2.9e-08 kPa
same,vapor or sublimation pressure,160.96 K,1.421e-07 ± 3.3e-08 kPa
same,vapor or sublimation pressure,160.97 K,1.636e-07 ± 3.4e-08 kPa
same,vapor or sublimation pressure,161.47 K,1.872e-07 ± 3.9e-08 kPa
[Xe] [xenon],vapor or sublimation pressure,50.01 K,4.67e-10 ± 1.9e-10 kPa and 4.85e-10 ± 1.9e-10 kPa
same,vapor or sublimation pressure,51.02 K,1.113e-09 ± 2.4e-10 kPa and 1.049e-09 ± 2.4e-10 kPa
same,vapor or sublimation pressure,52.02 K,2.544e-09 ± 3.5e-10 kPa
same,vapor or sublimation pressure,52.52 K,2.776e-09 ± 3.7e-10 kPa and 3.083e-09 ± 3.9e-10 kPa
same,vapor or sublimation pressure,53.02 K,4.226e-09 ± 4.8e-10 kPa and 4.645e-09 ± 5.1e-10 kPa
same,vapor or sublimation pressure,53.52 K,5.796e-09 ± 6e-10 kPa and 5.947e-09 ± 6.2e-10 kPa
same,vapor or sublimation pressure,54.02 K,8.078e-09 ± 7.8e-10 kPa and 8.286e-09 ± 8e-10 kPa
same,vapor or sublimation pressure,54.52 K,1.126e-08 ± 1e-09 kPa and 1.15e-08 ± 1e-09 kPa
same,vapor or sublimation pressure,55.02 K,1.528e-08 ± 1.3e-09 kPa and 1.544e-08 ± 1.4e-09 kPa
same,vapor or sublimation pressure,55.52 K,2.113e-08 ± 1.8e-09 kPa
same,vapor or sublimation pressure,56.02 K,2.907e-08 ± 2.4e-09 kPa and 2.973e-08 ± 2.5e-09 kPa
same,vapor or sublimation pressure,56.52 K,3.938e-08 ± 3.2e-09 kPa
same,vapor or sublimation pressure,56.53 K,4.024e-08 ± 3.3e-09 kPa
same,vapor or sublimation pressure,57.03 K,5.416e-08 ± 4.4e-09 kPa and 5.32e-08 ± 4.3e-09 kPa
